Laboratory results from PubChem BioAssay (NCI).
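Cultured in 96-well plates, cells were exposed to test compound for 48 hours across five concentrations. The concentration for 50% growth inhibition is given as GI50. TGI is the concentration that stops growth completely.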

What was measured:
Test in all cases: inhibition of tumour cell growth, NCI panel, 48 h
A498 renal = tested on: A498 renal
ACHN renal = tested on: ACHN renal
M14 melanoma = tested on: M14 melanoma
NCI-H23 lung = tested on: NCI-H23 lung
OVCAR-8 ovarian = tested on: OVCAR-8 ovarian
SF-539 CNS = tested on: SF-539 CNS
SNB-19 CNS = tested on: SNB-19 CNS
HCT-116 colon = tested on: HCT-116 colon
OVCAR-4 ovarian = tested on: OVCAR-4 ovarian
MCF7 breast = tested on: MCF7 breast

Row | Compound | TGI (A498 renal) | TGI (ACHN renal) | TGI (M14 melanoma) | TGI (NCI-H23 lung) | TGI (OVCAR-8 ovarian) | TGI (SF-539 CNS) | TGI (SNB-19 CNS) | TGI (HCT-116 colon) | TGI (OVCAR-4 ovarian) | TGI (MCF7 breast) | GI50 (A498 renal) | GI50 (ACHN renal) | GI50 (HCT-116 colon) | GI50 (M14 melanoma) | GI50 (MCF7 breast) | GI50 (NCI-H23 lung) | GI50 (OVCAR-4 ovarian) | GI50 (OVCAR-8 ovarian) | GI50 (SF-539 CNS) | GI50 (SNB-19 CNS)
1 | c1ccc2c(c1)nc1n2CSC1 | > 100 µM | > 100 µM | > 100 µM | > 100 µM | > 100 µM | > 100 µM | > 100 µM |  |  |  |  |  |  |  |  |  |  |  |  | 
2 | CC1=C[C@]2(CC(C)C3C(CC4(C)C5CCC6C(C)(C)C(=O)CC[C@@]67C[C@@]57CC[C@]34C)O2)OC1=O (stereo not given in full) | > 100 µM | > 100 µM | > 100 µM | > 100 µM | > 100 µM | 42.5 µM | 83.7 µM | > 100 µM | 57.5 µM |  |  |  |  |  |  |  |  |  |  | 
3 | Cc1nc2ccccc2c(=O)n1CC(=O)O | > 100 µM |  |  | > 100 µM | > 100 µM | > 100 µM | > 100 µM | > 100 µM | > 100 µM | > 100 µM |  |  |  |  |  |  |  |  |  | 
4 | CCN(CC)CCCC(Nc1c2ccc(Cl)cc2nc2ccc(OC)cc12)c1ccc(F)cc1 (stereo not given) | 21.4 µM | 3.64 µM | 3.58 µM | 7.9 µM | 10.4 µM | 3.25 µM |  | 3.48 µM | 4.71 µM | 3.62 µM | 7.37 µM | 1970 nM | 1840 nM | 1880 nM | 1640 nM | 2560 nM | 1.71 µM | 3.27 µM | 1730 nM | 
5 | Cc1cccc2c(N)c3cccc(C(=O)NCCN(C)C)c3nc12 | 0.516 µM | 6.75 µM | 0.422 µM | 1.16 µM | 2.01 µM |  |  | 2.38 µM | 18 µM |  |  |  |  |  |  |  |  |  |  | 
6 | CCCCN(CCCC)CCCCNc1c(C)cnc2cc(Cl)ccc12 | 86.5 µM | > 100 µM | 4.05 µM | > 100 µM | > 100 µM | 27 µM | > 100 µM | 42 µM | > 100 µM |  |  |  |  |  |  |  |  |  |  | 
7 | Nc1ncnc2c1ncn2C1CCC(CO)O1 (stereo not given) | > 100 µM |  |  | > 71.5 µM | > 79.4 µM | > 100 µM | > 100 µM | > 100 µM | > 89.1 µM | > 100 µM |  |  |  |  |  |  |  |  |  | 
8 | [C-]#[O+].[Cl][Sn]([Cl])[Cl].[Cl][Sn]([Cl])[Cl].[Pt].c1ccncc1 | > 100 µM |  |  | > 100 µM | > 100 µM | > 100 µM | > 100 µM | > 100 µM | > 100 µM | > 100 µM |  |  |  |  | > 100000 nM |  |  |  |  | 
9 | CO/N=C1/c2sccc2[C@H](NC(=O)C(F)(F)F)[C@@H]1O | > 100 µM |  | > 100 µM | > 100 µM | > 100 µM | > 100 µM |  | > 100 µM | > 100 µM | > 100 µM |  |  |  |  |  |  |  |  |  | 
10 | CCOc1ccc(/C=C/[N+](=O)[O-])cc1 | 11.5 µM | 24.3 µM | 4.24 µM | > 100 µM | 27.1 µM | 6.4 µM | 22 µM | 3.55 µM | > 100 µM | 13.5 µM | 2.79 µM | 12000 nM | 1930 nM | 2060 nM | 3400 nM | 18500 nM | 23.4 µM | 13.2 µM | 2350 nM | 8.95 µM
11 | CC(/C=C/c1ccc([N+](=O)[O-])o1)=N/N1CC(CN2CCOCC2)OC1=O (stereo not given) | 83.9 µM | 34.2 µM | 40.3 µM | 49.8 µM | 35.3 µM | 48.8 µM | > 100 µM | 56.4 µM | 29.7 µM | 27 µM |  |  |  |  |  |  |  |  |  | 
12 | CCOP(=O)(OCC)C(Cc1ccc(OC)c(OC)c1)N=C(c1ccccc1)c1ccccc1 (stereo not given) | > 100 µM | > 100 µM | > 100 µM | > 100 µM | > 100 µM | > 100 µM | > 100 µM | > 100 µM | > 100 µM | 55.5 µM |  |  |  |  |  |  |  |  |  | 
13 | CC(C)=CCc1c(C)cc2cc3c(c(O)c2c1O)C(O)=CC(=O)C3(CC=C(C)C)C/C=C(\C)CO (stereo not given) | 15.2 µM |  |  | 84.8 µM | 76.8 µM | 76.2 µM | 86.2 µM | 72.3 µM | 87 µM | 84.3 µM |  |  |  |  |  |  |  |  |  | 
14 | COc1cc2c3c(n(CCN(C)C)c(=O)c2cc1OC)-c1cc2c(cc1C3=O)OCO2 | 87.1 µM | > 100 µM | > 100 µM | > 100 µM | > 100 µM | 1.59 µM | > 100 µM | 19.3 µM | > 100 µM | > 33.8 µM | 15 µM |  |  |  | 297 nM | 137 nM | > 38.2 µM | 1.4 µM |  | > 20.7 µM
15 | COc1ccc(/C=N/NC(=O)NCCCN(C)C)cc1 | > 100 µM | > 100 µM |  | > 100 µM | > 100 µM | > 100 µM | > 100 µM | > 100 µM |  |  |  |  |  |  |  |  |  |  |  | 
16 | CN1CCN(Cc2ccc(NC(=O)c3ccc(C#N)c(C#Cc4cnc(N)c5ncccc45)c3)cc2C(F)(F)F)CC1 | 10.6 µM | 3.15 µM |  |  |  | 3.06 µM | > 100 µM |  |  |  | 3.25 µM | 1690 nM |  |  |  |  |  |  | 1520 nM | 3.87 µM
17 | CC(C)=CC(=O)OC1C2C(C)C(=O)OC2C(O)C(C)C2C=CC(=O)C21C (stereo not given) | 3.29 µM |  |  | 7.59 µM | 9.59 µM | 9.5 µM | 17.4 µM | 4.69 µM | 6.42 µM | 11.1 µM |  |  |  |  |  |  |  |  |  | 
18 | C[C@]12C=CC(=O)C=C1CC[C@@H]1[C@@H]2C(=O)C[C@@]2(C)[C@H]1CC[C@]2(O)C(=O)CO | > 100 µM | > 100 µM | > 100 µM | > 100 µM | > 100 µM | > 100 µM | > 100 µM | > 100 µM | > 100 µM | > 100 µM |  |  |  |  |  |  |  |  |  | 
19 | Cc1ccc(S(=O)(=O)Oc2cc(S(=O)(=O)O)cc3cc(S(=O)(=O)O)cc(N)c23)cc1 | > 100 µM | > 100 µM | > 100 µM | > 100 µM | > 100 µM | > 100 µM | > 100 µM | > 100 µM | > 100 µM | > 100 µM |  |  |  |  |  |  |  |  |  | 
